# Source: US8975400B2, “2,3-dihydroimidazo[1, 2-c] pyrimidin-5(1 H)-one compounds use as LP-PLA2 inhibitors” (Glaxo Group Limited, priority 2011, dated 2015)
# Structures can show the parent of a compound that is named as a salt.
# Experiments:
# [1] = target: T1, recombinant human Lp-PLA2 (Homo sapiens, UniProt Q13093); assay: Recombinant human Lp-PLA2 assay (rhLp-PLA2, PED6 assay); format: biochemical; details: recombinant human Lp-PLA2, PED6 substrate; upper limit for pIC50 in this assay is 9.3
# T1 sequence (Q13093 22-441): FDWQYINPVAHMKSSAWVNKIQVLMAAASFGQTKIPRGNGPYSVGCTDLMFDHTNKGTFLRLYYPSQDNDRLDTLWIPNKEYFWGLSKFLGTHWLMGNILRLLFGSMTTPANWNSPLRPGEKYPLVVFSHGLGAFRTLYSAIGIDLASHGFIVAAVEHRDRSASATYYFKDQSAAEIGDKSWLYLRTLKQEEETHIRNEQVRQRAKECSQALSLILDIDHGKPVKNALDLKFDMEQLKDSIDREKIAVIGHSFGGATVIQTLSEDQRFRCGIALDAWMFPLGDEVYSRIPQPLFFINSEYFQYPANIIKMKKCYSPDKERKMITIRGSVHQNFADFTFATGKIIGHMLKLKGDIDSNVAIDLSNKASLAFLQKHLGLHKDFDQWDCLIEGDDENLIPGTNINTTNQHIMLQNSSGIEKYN
# Method in brief: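 Compound preincubated 30 min with rhLp-PLA2 (4 nM or 110 pM) in 50 mM HEPES pH 7.4, 150 mM NaCl, 1 mM CHAPS, then PED6 substrate (4 μM or 5 μM) added. After 20 min at room temperature protected from light, fluorescence read at ex 480/em 540. pIC50 derived from serial-dilution curves.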
# Lp-PLA2 in human plasma = target: T2, Lp-PLA2 in human plasma (Homo sapiens, UniProt Q13093); assay: Lp-PLA2 human plasma assay (Thio-PAF assay); format: biochemical; details: pooled human plasma, 2-thio-PAF substrate; read-out: pIC50 in the thio-PAF assay (converted)
# T2 construct: This assay may detect the activity of Lp-PLA2 in human plasma; from tissue; host or cells: pooled human plasma
# T2 sequence (Q13093 22-441): T1 sequence (Q13093 22-441)
# Method in brief: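 Pooled human plasma preincubated 30 min with serially diluted compounds, then 2-thio-PAF substrate with CPM and NEM added in 50 mM HEPES pH 7.4, 150 mM NaCl, 1 mM CHAPS. TFA-quenched after 2 min, 40 min at RT, fluorescence ex 380/em 485; pIC50 from curve fit.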
Structure (SMILES),IC50 [1] [nM],IC50 (Lp-PLA2 in human plasma) [nM]
"CN1CCn2c1cc(OCc1ccc(Oc3ccc(Cl)c(F)c3)cc1)nc2=O [Example E25, 7-((4-(4-chloro-3-fluorophenoxy)benzyl)oxy)-1-methyl-2,3-dihydroimidazo[1,2-c]pyrimidin-5(1H)-one]",≤ 10,≤ 1000
"CN1CCn2c1cc(OCc1ccc(Oc3ccc(C#N)c(Cl)c3)c(C#N)c1)nc2=O [Example 122, 2-chloro-4-(2-cyano-4-(((1-methyl-5-oxo-1,2,3,5-tetrahydroimidazo[1,2-c]pyrimidin-7-yl)oxy)methyl)phenoxy)benzonitrile]",≤ 10,≤ 100
"CC(C)N1CCn2c1cc(OCc1ccc(Oc3ccc(Cl)c(C(F)(F)F)c3)cc1)nc2=O [Example E59, 7-((4-(4-chloro-3-(trifluoromethyl)phenoxy)benzyl)oxy)-1-isopropyl-2,3-dihydroim-idazo[1,2-c]pyrimidin-5(1H)-one]",≤ 10,≤ 100
"CN1CCn2c1cc(OCc1ccc(Oc3cncc(C(F)(F)F)c3)c(F)c1)nc2=O [Example 126, 7-((3-fluoro-4-((5-(trifluoromethyl)pyridin-3-yl)oxy)benzyl)oxy)-1-methyl-2,3-dihydroimidazo[1,2-c]pyrimidin-5(1H)-one]",≤ 10,≤ 100
"CN1CCn2c1cc(OCc1ccc(Oc3ccc(F)c(C#N)c3)c(C#N)c1)nc2=O [Example E52, 5-(2-cyano-4-(((1-methyl-5-oxo-1,2,3,5-tetrahydroimidazo[1,2-c]pyrimidin-7-yl)oxy)methyl)phenoxy)-2-fluorobenzonitrile]",≤ 10,≤ 100
"CN1CCn2c1cc(OCc1cc(F)c(Oc3cccc(C#N)c3)c(F)c1)nc2=O [Example 104, 3-(2,6-difluoro-4-(((1-methyl-5-oxo-1,2,3,5-tetrahydroimidazo[1,2-c]pyrimidin-7-yl)oxy)methyl)phenoxy)benzonitrile]",≤ 10,≤ 1000
"CN1CCn2c1cc(OCc1ccc(Oc3ccnc(C#N)c3)c(C#N)c1)nc2=O [Example 130, 4-(2-cyano-4-(((1-methyl-5-oxo-1,2,3,5-tetrahydroimidazo[1,2-c]pyrimidin-7-yl)oxy)methyl)phenoxy)picolinonitrile, trifluoroacetic acid salt]",≤ 10,≤ 100
"CN1CCn2c1cc(OCc1ccc(Oc3cccc(C(F)(F)F)c3)c(F)c1)nc2=O [Example E20, 7-((3-fluoro-4-(3-(trifluoromethyl)phenoxy)benzyl)oxy)-1-methy-2,3-dihydroimid-azo[1,2-c]pyrimidin-5(1H)-one]",≤ 10,≤ 1000
"CN1CCn2c1cc(OCc1cc(F)c(Oc3ccc(C(F)(F)F)nc3)c(F)c1)nc2=O [Example E2, 7-((3,5-difluoro-4-((6-(trifluoromethyl)pyridin-3-yl)oxy)benzyl)oxy)-1-methyl-2,3-dihydroimidazo[1,2-c]pyrimidin-5(1H)-one]",≤ 10,≤ 1000
"CN1CCn2c1cc(OCc1ccc(Oc3ccc(C(F)(F)F)cn3)c(C#N)c1)nc2=O [Example E35, 5-(((1-methyl-5-oxo-1,2,3,5-tetrahydroimidazo[1,2-c]pyrimidin-7-yl)oxy)methyl)-2-((5-(trifluoromethyl)pyridin-2-yl)oxy)benzonitrile, trifluoroacetic acid salt]",≤ 10,≤ 1000
"CN1CCn2c1cc(OCc1ccc(Oc3ccc(Cl)c(F)c3)c(C#N)c1)nc2=O [Example E37, 2-(4-chloro-3-fluorophenoxy)-5-(((1-methyl-5-oxo-1,2,3,5-tetrahydroimidazo[1,2-c]pyrimidin-7-yl)oxy)methyl)benzonitrile, trifluoroacetic acid salt]",≤ 10,≤ 1000
"CN1CCn2c1cc(OCc1cc(F)c(Oc3ccc(F)c(F)c3)c(F)c1)nc2=O [Example E75, 7-((4-(3,4-difluorophenoxy)-3,5-difluorobenzyl)oxy)-1-methyl-2,3-dihydroimida-zo[1,2-c]pyrimidin-5(1H)-one]",≤ 10,≤ 1000
"N#Cc1cc(COc2cc3n(c(=O)n2)CCN3)ccc1Oc1ccc(Cl)c(C(F)(F)F)c1 [Example 96, 2-(4-chloro-3-(trifluoromethyl)phenoxy)-5-(((5-oxo-1,2,3,5-tetrahydroimidazo[1,2-c]pyrimidin-7-yl)oxy)methyl)benzonitrile]",≤ 10,≤ 100
"CN1CCn2c1cc(OCc1ccc(Oc3ccc(F)c(C(F)(F)F)c3)cc1)nc2=O [Example E29, 7-((4-(4-fluoro-3-(trifluoromethyl)phenoxy)benzyl)oxy)-1-methyl-2,3-dihydroimid-azo[1,2-c]pyrimidin-5(1H)-one]",≤ 10,≤ 1000
"CN1CCn2c1cc(OCc1ccc(Oc3ccc(F)c(C#N)c3)c(F)c1)nc2=O [Example 139, 2-fluoro-5-(2-fluoro-4-(((1-methyl-5-oxo-1,2,3,5-tetrahydroimidazo[1,2-c]pyrimidin-7-yl)oxy)methyl)phenoxy)benzonitrile]",≤ 10,≤ 1000
"CN1CCn2c1cc(OCc1ccc(Oc3ccc(Cl)nc3)c(C#N)c1)nc2=O [Example 100, 2-((6-chloropyridin-3-yl)oxy)-5-(((1-methyl-5-oxo-1,2,3,5-tetrahydroimidazo[1,2-c]pyrimidin-7-yl)oxy)methyl)benzonitrile]",≤ 10,≤ 1000
"CN1CCn2c1cc(OCc1ccc(Oc3cc(C#N)cc(C(F)(F)F)c3)c(F)c1)nc2=O [Example 150, 3-(2-fluoro-4-(((1-methyl-5-oxo-1,2,3,5-tetrahydroimidazo[1,2-c]pyrimidin-7-yl)oxy)methyl)phenoxy)-5-(trifluoromethyl)benzonitrile, trifluoroacetic acid salt]",≤ 10,≤ 100
"CN1CCn2c1cc(OCc1ccc(Oc3ccc(Cl)nc3)c(F)c1)nc2=O [Example 103, 7-((4-((6-chloropyridin-3-yl)oxy)-3-fluorobenzyl)oxy)-1-methyl-2,3-dihydroimid-azo[1,2-c]pyrimidin-5(1H)-one, trifluoroacetic acid salt]",≤ 10,≤ 100

# The remaining lines, values ahead:
IC50 [1] [nM],IC50 (Lp-PLA2 in human plasma) [nM],Structure (SMILES)
≤ 1,≤ 100,"CN1CCn2c1cc(OCc1ccc(Oc3ccc(Cl)c(C(F)(F)F)c3)c(C#N)c1)nc2=O [Example 101, 2-(4-chloro-3-(trifluoromethyl)phenoxy)-5-(((1-methyl-5-oxo-1,2,3,5-tetrahydro-imidazo[1,2-c]pyrimidin-7-yl)oxy)methyl)benzonitrile, trifluoroacetic acid salt]"
≤ 1,≤ 100,"CN1CCn2c1cc(OCc1ccc(Oc3ccc(F)c(F)c3)c(F)c1)nc2=O [Example E4, 7-((4-(3,4-difluorophenoxy)-3-fluorobenzyl)oxy)-1-methyl-2,3-dihydroimidazo[1,2-c]pyrimidin-5(1H)-one]"
1.26,≤ 100,"CN1CCn2c1cc(OCc1ccc(Oc3ccc(C#N)c(F)c3)c(C#N)c1)nc2=O [Example 95, 4-(2-cyano-4-(((1-methyl-5-oxo-1,2,3,5-tetrahydroimidazo[1,2-c]pyrimidin-7-yl)oxy)methyl)phenoxy)-2-fluorobenzonitrile]"
3.98,≤ 100,"CN1CCn2c1cc(OCc1ccc(Oc3cncc(C(F)(F)F)c3)c(C#N)c1)nc2=O [Example 115, 5-(((1-methyl-5-oxo-1,2,3,5-tetrahydroimidazo[1,2-c]pyrimidin-7-yl)oxy)methyl)-2-((5-(trifluoromethyl)pyridin-3-yl)oxy)benzonitrile, trifluoroacetic acid salt]"
≤ 1,≤ 100,"CN1CCn2c1cc(OCc1ccc(Oc3ccc(C#N)c(Cl)c3)c(F)c1)nc2=O [Example 128, 2-chloro-4-(2-fluoro-4-(((1-methyl-5-oxo-1,2,3,5-tetrahydroimidazo[1,2-c]pyrimidin-7-yl)oxy)methyl)phenoxy)benzonitrile]"
1,≤ 100,"CN1CCn2c1cc(OCc1cc(F)c(Oc3cncc(C(F)(F)F)c3)c(F)c1)nc2=O [Example 147, 7-((3,5-difluoro-4-((5-(trifluoromethyl)pyridin-3-yl)oxy)benzyl)oxy)-1-methyl-2,3-dihydroimidazo[1,2-c]pyrimidin-5(1H)-one]"
≤ 1,≤ 100,"O=c1nc(OCc2ccc(Oc3ccc(F)c(C(F)(F)F)c3)c(F)c2)cc2n1CCN2 [Example E66, 7-((3-fluoro-4-(4-fluoro-3-(trifluoromethyl)phenoxy)benzyl)oxy)-2,3-dihydroimidaz-o[1,2-c]pyrimidin-5(1H)-one]"
< 0.501,≤ 100,"CN1CCn2c1cc(OCc1cc(F)c(Oc3ccc(C#N)c(C(F)(F)F)c3)c(F)c1)nc2=O [Example 144, 4-(2,6-difluoro-4-(((1-methyl-5-oxo-1,2,3,5-tetrahydroimidazo[1,2-c]pyrimidin-7-yl)oxy)methyl)phenoxy)-2-(trifluoromethyl)benzonitrile]"
